Each structure is given as a SMILES string.

As a reminder, the IC50 is the point on the concentration scale where inhibition reaches its midpoint. Lower therefore signals greater potency.

PARP7, sequence (Q7Z3E1 whole entry): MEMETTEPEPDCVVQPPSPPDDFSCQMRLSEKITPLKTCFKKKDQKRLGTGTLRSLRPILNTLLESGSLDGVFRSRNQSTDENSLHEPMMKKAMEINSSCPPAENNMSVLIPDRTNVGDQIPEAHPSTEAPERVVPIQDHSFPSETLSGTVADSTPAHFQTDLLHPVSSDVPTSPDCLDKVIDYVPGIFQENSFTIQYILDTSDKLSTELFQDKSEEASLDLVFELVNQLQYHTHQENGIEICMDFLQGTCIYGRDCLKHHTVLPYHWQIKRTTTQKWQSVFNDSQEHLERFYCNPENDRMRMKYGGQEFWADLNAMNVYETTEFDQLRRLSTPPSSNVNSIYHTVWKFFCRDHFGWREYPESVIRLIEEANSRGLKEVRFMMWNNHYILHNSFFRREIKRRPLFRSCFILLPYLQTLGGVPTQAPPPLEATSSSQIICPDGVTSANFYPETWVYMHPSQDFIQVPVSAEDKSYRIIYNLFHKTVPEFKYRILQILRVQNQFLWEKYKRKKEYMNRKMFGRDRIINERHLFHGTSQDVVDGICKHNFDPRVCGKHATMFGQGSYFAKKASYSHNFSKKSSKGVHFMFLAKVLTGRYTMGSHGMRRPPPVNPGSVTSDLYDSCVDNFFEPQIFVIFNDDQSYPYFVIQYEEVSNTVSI

The assay has as its target PARP7 (Homo sapiens (Human), UniProt Q7Z3E1). In words: Enzymatic assay for inhibition of PARP7: TR-FRET displacement of biotinylated Probe A from the TIPARP active site. The assay is classed as binding. The following applies: Table A-1. Put shortly:
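Titrated compounds compete with the biotinylated probe; after an additional 30 min incubation at 25° C, time-delayed fluorescence (90 μs) is measured. Inhibition curves use a Hill coefficient that normally floats but may be held at 1.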
(In general: In TR-FRET formats the signal depends on donor and acceptor labels being close together.)
For the compound `N#Cc1cnc(N2CCN(C(=O)c3cncc(OCC4c5ccccc5CN4c4cn[nH]c(=O)c4C(F)(F)F)c3)CC2)nc1` (centres unmarked) [Example 379, 2-(4-(5-((2-(6-Oxo-5-(trifluoromethyl)-1,6-dihydropyridazin-4-yl)isoindolin-1-yl)methoxy)nicotinoyl)piperazin-1-yl)pyrimidine-5-carbonitrile], the 50% inhibitory concentration (IC50) was below 100 nM.

In the case of `N#Cc1cnc(N2CCN(C(=O)c3cc(OCC4c5ccccc5CN4c4cn[nH]c(=O)c4C(F)(F)F)ccn3)CC2)nc1` (centres unmarked) [Example 380, 2-(4-(4-((2-(6-Oxo-5-(trifluoromethyl)-1,6-dihydropyridazin-4-yl)isoindolin-1-yl)methoxy)picolinoyl)piperazin-1-yl)pyrimidine-5-carbonitrile], the IC50 was below 100 nM.

Consider `N#Cc1ccc(N2CCN(C(=O)c3ccnc(OCC4c5ccccc5CN4c4cn[nH]c(=O)c4C(F)(F)F)c3)CC2)nc1` (centres unmarked) [Example 381, 6-(4-(2-((2-(6-Oxo-5-(trifluoromethyl)-1,6-dihydropyridazin-4-yl)isoindolin-1-yl)methoxy)isonicotinoyl)piperazin-1-yl)nicotinonitrile], for which the half-inhibitory concentration (IC50) is below 100 nM.

Regarding `N#Cc1ccc(N2CCN(C(=O)c3ccnc(OCC4c5ccccc5CN4c4cn[nH]c(=O)c4C(F)(F)F)n3)CC2)nc1` (centres unmarked) [Example 383, 6-(4-(2-((2-(6-Oxo-5-(trifluoromethyl)-1,6-dihydropyridazin-4-yl)isoindolin-1-yl)methoxy)pyrimidine-4-carbonyl)piperazin-1-yl)nicotinonitrile], the 50% inhibitory concentration (IC50) was below 100 nM.

Compound `O=C(c1cncc(OC[C@@H]2c3ccccc3CN2c2cn[nH]c(=O)c2C(F)(F)F)c1)N1CCN(c2ccc(C(F)(F)F)cn2)CC1` [Example 384, (S)-4-(Trifluoromethyl)-5-(1-(((5-(4-(5-(trifluoromethyl)pyridin-2-yl)piperazine-1-carbonyl)pyridin-3-yl)oxy)methyl)isoindolin-2-yl)pyridazin-3(2H)-one] gave an IC50 below 100 nM.

`O=C(c1cncc(OC[C@H]2c3ccccc3CN2c2cn[nH]c(=O)c2C(F)(F)F)c1)N1CCN(c2ccc(C(F)(F)F)cn2)CC1` [Example 385, (R)-4-(Trifluoromethyl)-5-(1-(((5-(4-(5-(trifluoromethyl)pyridin-2-yl)piperazine-1-carbonyl)pyridin-3-yl)oxy)methyl)isoindolin-2-yl)pyridazin-3(2H)-one] had an IC50 of 100 to 1000 nM.

The compound `O=C(c1cncc(OC[C@@H]2c3ccccc3CN2c2cn[nH]c(=O)c2C(F)(F)F)c1)N1CCN(c2ccc(F)cn2)CC1` [Example 386, (5)-5-(1-(((5-(4-(5-Fluoropyridin-2-yl)piperazine-1-carbonyl)pyridin-3-yl)oxy)methyl)isoindolin-2-yl)-4-(trifluoromethyl)pyridazin-3(2H)-one] registered a half-inhibitory concentration (IC50) below 100 nM.

Compound `O=C(c1cncc(OC[C@H]2c3ccccc3CN2c2cn[nH]c(=O)c2C(F)(F)F)c1)N1CCN(c2ccc(F)cn2)CC1` [Example 387, (R)-5-(1-(((5-(4-(5-Fluoropyridin-2-yl)piperazine-1-carbonyl)pyridin-3-yl)oxy)methyl)isoindolin-2-yl)-4-(trifluoromethyl)pyridazin-3(2H)-one] gave an IC50 of at least 1000 nM.

Turning to `O=C(c1cncc(OC[C@@H]2c3ccccc3CN2c2cn[nH]c(=O)c2C(F)(F)F)c1)N1CCN(c2ccc(Cl)cn2)CC1` [Example 388, (S)-5-(1-(((5-(4-(5-Chloropyridin-2-yl)piperazine-1-carbonyl)pyridin-3-yl)oxy)methyl)isoindolin-2-yl)-4-(trifluoromethyl)pyridazin-3(2H)-one], the IC50 was below 100 nM.

Compound `O=C(c1cncc(OC[C@H]2c3ccccc3CN2c2cn[nH]c(=O)c2C(F)(F)F)c1)N1CCN(c2ccc(Cl)cn2)CC1` [Example 389, (R)-5-(1-(((5-(4-(5-Chloropyridin-2-yl)piperazine-1-carbonyl)pyridin-3-yl)oxy)methyl)isoindolin-2-yl)-4-(trifluoromethyl)pyridazin-3(2H)-one] registered an IC50 of 100 to 1000 nM.

For the compound `O=C(c1cccc(OC[C@@H]2c3ccccc3CN2c2cn[nH]c(=O)c2C(F)(F)F)c1)N1CCN(c2ncc(C(F)(F)F)cn2)CC1` [Example 390, (S)-4-(Trifluoromethyl)-5-(1-((3-(4-(5-(trifluoromethyl)pyrimidin-2-yl)piperazine-1-carbonyl)phenoxy)methyl)isoindolin-2-yl)pyridazin-3(2H)-one], the IC50 was below 100 nM.

As to `O=C(c1cccc(OC[C@H]2c3ccccc3CN2c2cn[nH]c(=O)c2C(F)(F)F)c1)N1CCN(c2ncc(C(F)(F)F)cn2)CC1` [Example 391, (R)-4-(Trifluoromethyl)-5-(1-((3-(4-(5-(trifluoromethyl)pyrimidin-2-yl)piperazine-1-carbonyl)phenoxy)methyl)isoindolin-2-yl)pyridazin-3(2H)-one], the IC50 was at least 1000 nM.

The compound `O=C(c1cncc(OC[C@@H]2c3ccccc3CN2c2cn[nH]c(=O)c2C(F)(F)F)c1)N1CCN(c2ncc(C(F)(F)F)cn2)CC1` [Example 392, (S)-4-(Trifluoromethyl)-5-(1-(((5-(4-(5-(trifluoromethyl)pyrimidin-2-yl)piperazine-1-carbonyl)pyridin-3-yl)oxy)methyl)isoindolin-2-yl)pyridazin-3(2H)-one] returned a 50% inhibitory concentration (IC50) below 100 nM.

With `O=C(c1cncc(OC[C@H]2c3ccccc3CN2c2cn[nH]c(=O)c2C(F)(F)F)c1)N1CCN(c2ncc(C(F)(F)F)cn2)CC1` [Example 393, (R)-4-(Trifluoromethyl)-5-(1-(((5-(4-(5-(trifluoromethyl)pyrimidin-2-yl)piperazine-1-carbonyl)pyridin-3-yl)oxy)methyl)isoindolin-2-yl)pyridazin-3(2H)-one], the concentration for half-maximal inhibition (IC50) lay in the range of 100 to 1000 nM.

As for `N#Cc1ccc(NCCC(=O)Nc2cccc(OCC3c4ccccc4CN3c3cn[nH]c(=O)c3C(F)(F)F)c2)nc1` (centres unmarked) [Example 394, 3-((5-Cyanopyridin-2-yl)amino)-N-(3-((2-(6-oxo-5-(trifluoromethyl)-1,6-dihydropyridazin-4-yl)isoindolin-1-yl)methoxy)phenyl)propanamide], the half-inhibitory concentration (IC50) was below 100 nM.

`N#Cc1cnc(N2CCN(C(=O)c3cncc(OC[C@@H]4c5ccccc5CN4c4cn[nH]c(=O)c4C(F)(F)F)c3)CC2)nc1` [Example 395, (S)-2-(4-(5-((2-(6-Oxo-5-(trifluoromethyl)-1,6-dihydropyridazin-4-yl)isoindolin-1-yl)methoxy)nicotinoyl)piperazin-1-yl)pyrimidine-5-carbonitrile] displayed a concentration for half-maximal inhibition (IC50) below 100 nM.

Compound `N#Cc1cnc(N2CCN(C(=O)c3cncc(OC[C@H]4c5ccccc5CN4c4cn[nH]c(=O)c4C(F)(F)F)c3)CC2)nc1` [Example 396, (R)-2-(4-(5-((2-(6-Oxo-5-(trifluoromethyl)-1,6-dihydropyridazin-4-yl)isoindolin-1-yl)methoxy)nicotinoyl)piperazin-1-yl)pyrimidine-5-carbonitrile] had an IC50 of at least 1000 nM.

In turn, `N#Cc1ccc(N2CCN(C(=O)c3cccc(OCC4c5ncccc5CN4c4cn[nH]c(=O)c4C(F)(F)F)c3)CC2)nc1` (centres unmarked) [Example 397, 6-(4-(3-((6-(6-Oxo-5-(trifluoromethyl)-1,6-dihydropyridazin-4-yl)-6,7-dihydro-5H-pyrrolo[3,4-b]pyridin-7-yl)methoxy)benzoyl)piperazin-1-yl)nicotinonitrile] yielded an IC50 below 100 nM.

Take `O=C(c1cccc(OCC2c3ccccc3CN2c2cn[nH]c(=O)c2C(F)(F)F)c1)N1CCn2ncnc2C1` (centres unmarked) [Example 398, 5-(1-((3-(5,6,7,8-Tetrahydro-[1,2,4]triazolo[1,5-a]pyrazine-7-carbonyl)phenoxy)methyl)isoindolin-2-yl)-4-(trifluoromethyl)pyridazin-3(2H)-one]: the IC50 is below 100 nM.

The compound `O=C(c1cccc(OCC2c3ccccc3CN2c2cn[nH]c(=O)c2C(F)(F)F)c1)N1CCn2nncc2C1` (centres unmarked) [Example 399, 5-(1-((3-(4,5,6,7-Tetrahydro-[1,2,3]triazolo[1,5-a]pyrazine-5-carbonyl)phenoxy)methyl)isoindolin-2-yl)-4-(trifluoromethyl)pyridazin-3(2H)-one] showed a half-inhibitory concentration (IC50) of 100 to 1000 nM.

Consider `N#Cc1ccc(N2CCN(C(=O)c3ccc(OCc4cccc5c4CN(c4cn[nH]c(=O)c4C(F)(F)F)C5)cc3)CC2)nc1` [Example 400], for which the half-maximal inhibitory concentration (IC50) was below 100 nM.

`N#Cc1ccc(N2CCN(C(=O)c3cccc(OCCc4cccc5c4CN(c4cn[nH]c(=O)c4C(F)(F)F)C5)c3)CC2)nc1` [Example 401, 6-(4-(3-(2-(2-(6-Oxo-5-(trifluoromethyl)-1,6-dihydropyridazin-4-yl)isoindolin-4-yl)ethoxy)benzoyl)piperazin-1-yl)nicotinonitrile] displayed an IC50 below 100 nM.

As to `N#Cc1ccc(N2CCN(C(=O)c3ccc(OCCc4cccc5c4CN(c4cn[nH]c(=O)c4C(F)(F)F)C5)cc3)CC2)nc1` [Example 402, 6-(4-(4-(2-(2-(6-Oxo-5-(trifluoromethyl)-1,6-dihydropyridazin-4-yl)isoindolin-4-yl)ethoxy)benzoyl)piperazin-1-yl)nicotinonitrile], the 50% inhibitory concentration (IC50) is below 100 nM.

For the compound `Cc1ccc(N2CCN(C(=O)c3cccc(OCC4c5ccccc5CN4c4cn[nH]c(=O)c4C(F)(F)F)c3)CC2)nc1` (centres unmarked) [Example 403, 5-(1-((3-(4-(5-Methylpyridin-2-yl)piperazine-1-carbonyl)phenoxy)methyl)isoindolin-2-yl)-4-(trifluoromethyl)pyridazin-3(2H)-one], the IC50 was below 100 nM.

Take `O=C(c1cccc(OCC2c3ccccc3CN2c2cn[nH]c(=O)c2C(F)(F)F)c1)N1CCn2nccc2C1` (centres unmarked) [Example 404, 5-(1-((3-(4,5,6,7-Tetrahydropyrazolo[1,5-a]pyrazine-5-carbonyl)phenoxy)methyl)isoindolin-2-yl)-4-(trifluoromethyl)pyridazin-3(2H)-one]: the IC50 was 100 to 1000 nM.

As to `CC(=O)N1CCN(C(=O)c2cccc(OCC3c4ccccc4CN3c3cn[nH]c(=O)c3C(F)(F)F)c2)CC1` (centres unmarked) [Example 405, 5-(1-((3-(4-Acetylpiperazine-1-carbonyl)phenoxy)methyl)isoindolin-2-yl)-4-(trifluoromethyl)pyridazin-3(2H)-one], the IC50 is below 100 nM.

Values taken from patent publication US10550105B2 (Ribon Therapeutics Inc., priority 2018, dated 2020).
